Data taken from PubChem BioAssay AID1963847 (Molecular Pharmacology Branch, DTP, NCI, 2024).

Test system: 415267-285-R-J2-PDC complex spheroid viability
Assay: Anticancer human tumor 415267-285-R-J2-PDC patient-derived breast carcinoma cell line growth inhibition [POLQ]
Details: for IC50: curve of first compound; for viability, T/C: stronger effect = lower value
Procedure, shortened: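 PDC + HUVEC + MSC complex spheroids; POLQ inhibitors ± partner drugs; top conc. at/near clinical Cmax, else 10 microM (SN-38 1 microM), half-log dilutions; 37 degrees C, 5% CO2.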
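Further: spheroids exposed to compounds for one week before readout.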
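Wherever viability, T/C is given: luminescence used as stand-in measure of viable cells; 100% = DMSO vehicle control viability.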

Question: With `CC(=O)O[C@H]1C(=O)[C@@]2(C)[C@H]([C@H](OC(=O)c3ccccc3)[C@]3(O)C[C@H](OC(=O)[C@H](O)[C@@H](NC(=O)c4ccccc4)c4ccccc4)C(C)=C1C3(C)C)[C@]1(OC(C)=O)CO[C@@H]1C[C@@H]2O` + COC1C(OC(N)=O)C(O)C(Oc2ccc3c(O)c(NC(=O)c4ccc(O)c(CC=C(C)C)c4)c(=O)oc3c2C)OC1(C)C as the compound, how does the IC50 (second compound 0.0316 µM) read?
Answer: < 0.00949 µM

Question: And the IC50 (second compound 0.1 µM)?
Answer: < 0.00949 µM

Question: And the IC50 (second compound 0.316 µM)?
Answer: < 0.00949 µM

Question: And the IC50 (second compound 1 µM)?
Answer: < 0.00949 µM

Question: What about the IC50 (second compound 3.16 µM) of the same compound?
Answer: < 0.00949 µM

Question: And the IC50 (second compound 10 µM)?
Answer: < 0.00949 µM

Question: And the viability, T/C (second compound 0.0316 µM, first compound 0.00949 µM)?
Answer: 13.6%

Question: And the viability, T/C (second compound 0.0316 µM, first compound 0.03 µM)?
Answer: 9.68%

Question: And the viability, T/C (second compound 0.0316 µM, first compound 0.0949 µM)?
Answer: 8.14%

Question: What about the viability, T/C (second compound 0.0316 µM, first compound 0.3 µM) of the same compound?
Answer: 6.55%

Question: And the viability, T/C (second compound 0.0316 µM, first compound 0.949 µM)?
Answer: 8.38%

Question: What about the viability, T/C (second compound 0.0316 µM, first compound 3 µM) of the same compound?
Answer: 8.03%

Question: What about the viability, T/C (second compound 0.1 µM, first compound 0.00949 µM) of the same compound?
Answer: 11%

Question: And the viability, T/C (second compound 0.1 µM, first compound 0.03 µM)?
Answer: 8.15%

Question: What about the viability, T/C (second compound 0.1 µM, first compound 0.0949 µM) of the same compound?
Answer: 7.43%

Question: What about the viability, T/C (second compound 0.1 µM, first compound 0.3 µM) of the same compound?
Answer: 7.95%

Question: What about the viability, T/C (second compound 0.1 µM, first compound 0.949 µM) of the same compound?
Answer: 8.29%

Question: And the viability, T/C (second compound 0.1 µM, first compound 3 µM)?
Answer: 9.45%

Question: And the viability, T/C (second compound 0.316 µM, first compound 0.00949 µM)?
Answer: 13.1%

Question: And the viability, T/C (second compound 0.316 µM, first compound 0.03 µM)?
Answer: 9.7%

Question: What about the viability, T/C (second compound 0.316 µM, first compound 0.0949 µM) of the same compound?
Answer: 7.34%

Question: And the viability, T/C (second compound 0.316 µM, first compound 0.3 µM)?
Answer: 8.56%

Question: And the viability, T/C (second compound 0.316 µM, first compound 0.949 µM)?
Answer: 8.09%

Question: And the viability, T/C (second compound 0.316 µM, first compound 3 µM)?
Answer: 7.17%

Question: And the viability, T/C (second compound 1 µM, first compound 0.00949 µM)?
Answer: 12.9%

Question: And the viability, T/C (second compound 1 µM, first compound 0.03 µM)?
Answer: 8.82%

Question: And the viability, T/C (second compound 1 µM, first compound 0.0949 µM)?
Answer: 8.23%

Question: And the viability, T/C (second compound 1 µM, first compound 0.3 µM)?
Answer: 8.01%

Question: What about the viability, T/C (second compound 1 µM, first compound 0.949 µM) of the same compound?
Answer: 8.58%

Question: And the viability, T/C (second compound 1 µM, first compound 3 µM)?
Answer: 7.75%

Question: What about the viability, T/C (second compound 3.16 µM, first compound 0.00949 µM) of the same compound?
Answer: 13%

Question: What about the viability, T/C (second compound 3.16 µM, first compound 0.03 µM) of the same compound?
Answer: 10.4%

Question: And the viability, T/C (second compound 3.16 µM, first compound 0.0949 µM)?
Answer: 8%

Question: What about the viability, T/C (second compound 3.16 µM, first compound 0.3 µM) of the same compound?
Answer: 7.65%

Question: And the viability, T/C (second compound 3.16 µM, first compound 0.949 µM)?
Answer: 8.33%

Question: And the viability, T/C (second compound 3.16 µM, first compound 3 µM)?
Answer: 8.3%

Question: What about the viability, T/C (second compound 10 µM, first compound 0.00949 µM) of the same compound?
Answer: 24.1%

Question: And the viability, T/C (second compound 10 µM, first compound 0.03 µM)?
Answer: 9.1%

Question: What about the viability, T/C (second compound 10 µM, first compound 0.0949 µM) of the same compound?
Answer: 7.75%

Question: And the viability, T/C (second compound 10 µM, first compound 0.3 µM)?
Answer: 8.73%

Question: And the viability, T/C (second compound 10 µM, first compound 0.949 µM)?
Answer: 6.75%

Question: And the viability, T/C (second compound 10 µM, first compound 3 µM)?
Answer: 9.23%

Question: For `CNCc1ccc(-c2[nH]c3cc(F)cc4c3c2CCNC4=O)cc1` + COC1C(OC(N)=O)C(O)C(Oc2ccc3c(O)c(NC(=O)c4ccc(O)c(CC=C(C)C)c4)c(=O)oc3c2C)OC1(C)C, which IC50 (second compound 0.0316 µM) is on record?
Answer: > 10 µM

Question: What about the IC50 (second compound 0.1 µM) of the same compound?
Answer: > 10 µM

Question: What about the IC50 (second compound 0.316 µM) of the same compound?
Answer: > 10 µM

Question: What about the IC50 (second compound 1 µM) of the same compound?
Answer: > 10 µM

Question: What about the IC50 (second compound 3.16 µM) of the same compound?
Answer: > 10 µM

Question: And the IC50 (second compound 10 µM)?
Answer: > 10 µM

Question: What about the viability, T/C (second compound 0.0316 µM, first compound 0.0316 µM) of the same compound?
Answer: 114%

Question: What about the viability, T/C (second compound 0.0316 µM, first compound 0.1 µM) of the same compound?
Answer: 104%

Question: What about the viability, T/C (second compound 0.0316 µM, first compound 0.316 µM) of the same compound?
Answer: 99%

Question: And the viability, T/C (second compound 0.0316 µM, first compound 1 µM)?
Answer: 113%

Question: What about the viability, T/C (second compound 0.0316 µM, first compound 3.16 µM) of the same compound?
Answer: 117%

Question: What about the viability, T/C (second compound 0.0316 µM, first compound 10 µM) of the same compound?
Answer: 113%

Question: What about the viability, T/C (second compound 0.1 µM, first compound 0.0316 µM) of the same compound?
Answer: 97.7%

Question: What about the viability, T/C (second compound 0.1 µM, first compound 0.1 µM) of the same compound?
Answer: 103%

Question: And the viability, T/C (second compound 0.1 µM, first compound 0.316 µM)?
Answer: 117%

Question: What about the viability, T/C (second compound 0.1 µM, first compound 1 µM) of the same compound?
Answer: 107%

Question: And the viability, T/C (second compound 0.1 µM, first compound 3.16 µM)?
Answer: 106%

Question: And the viability, T/C (second compound 0.1 µM, first compound 10 µM)?
Answer: 106%

Question: What about the viability, T/C (second compound 0.316 µM, first compound 0.0316 µM) of the same compound?
Answer: 95.7%

Question: What about the viability, T/C (second compound 0.316 µM, first compound 0.1 µM) of the same compound?
Answer: 109%

Question: And the viability, T/C (second compound 0.316 µM, first compound 0.316 µM)?
Answer: 95.3%

Question: And the viability, T/C (second compound 0.316 µM, first compound 1 µM)?
Answer: 114%

Question: What about the viability, T/C (second compound 0.316 µM, first compound 3.16 µM) of the same compound?
Answer: 102%

Question: What about the viability, T/C (second compound 0.316 µM, first compound 10 µM) of the same compound?
Answer: 98.8%

Question: And the viability, T/C (second compound 1 µM, first compound 0.0316 µM)?
Answer: 115%

Question: What about the viability, T/C (second compound 1 µM, first compound 0.1 µM) of the same compound?
Answer: 105%

Question: What about the viability, T/C (second compound 1 µM, first compound 0.316 µM) of the same compound?
Answer: 97.8%

Question: What about the viability, T/C (second compound 1 µM, first compound 1 µM) of the same compound?
Answer: 127%

Question: And the viability, T/C (second compound 1 µM, first compound 3.16 µM)?
Answer: 102%

Question: And the viability, T/C (second compound 1 µM, first compound 10 µM)?
Answer: 98.7%

Question: What about the viability, T/C (second compound 3.16 µM, first compound 0.0316 µM) of the same compound?
Answer: 95%

Question: What about the viability, T/C (second compound 3.16 µM, first compound 0.1 µM) of the same compound?
Answer: 99.4%

Question: What about the viability, T/C (second compound 3.16 µM, first compound 0.316 µM) of the same compound?
Answer: 120%

Question: What about the viability, T/C (second compound 3.16 µM, first compound 1 µM) of the same compound?
Answer: 116%

Question: What about the viability, T/C (second compound 3.16 µM, first compound 3.16 µM) of the same compound?
Answer: 102%

Question: And the viability, T/C (second compound 3.16 µM, first compound 10 µM)?
Answer: 104%

Question: And the viability, T/C (second compound 10 µM, first compound 0.0316 µM)?
Answer: 104%

Question: And the viability, T/C (second compound 10 µM, first compound 0.1 µM)?
Answer: 108%

Question: And the viability, T/C (second compound 10 µM, first compound 0.316 µM)?
Answer: 104%

Question: And the viability, T/C (second compound 10 µM, first compound 1 µM)?
Answer: 106%

Question: And the viability, T/C (second compound 10 µM, first compound 3.16 µM)?
Answer: 99.9%

Question: What about the viability, T/C (second compound 10 µM, first compound 10 µM) of the same compound?
Answer: 111%
